Test results reported in patent publication US8937056B2, “Multikinase inhibitors for use in the treatment of cancer” (Eisai R&D Management Co., Ltd., priority 2007, dated 2015).

Columns and labels:
[1] = tested on: Cell lines which carried a B-RAF V600E mutation; assay: Cell growth inhibition in solid cancer cell lines (CellTiter-Glo or methylene blue); assay type: cell-based; details: 96 hours, B-RAF V600E mutated cell lines very sensitive
Experimental: Compounds 091 and 106, were extensively tested in solid cancer cell lines (shown in FIG. 3 for 18 cell lines for compound 091 and 20 cell lines for compound 106). […] Cell growth was assessed using a CellTiter-Glo® Luminescent Cell Viability Assay (Promega) or a methylene blue assay.

[2] = tested on: BxPC-3 human pancreatic cancer xenografts; assay: In vivo antitumor activity in BxPC-3 xenografts; parameters: species or system mice; details: 30 mg/kg i.v., two weekly rounds of q1d×5
Experimental: A study was carried out to investigate anticancer activity of compound 091 in human BxPC-3 pancreatic cancer xenografts. The compound was evaluated against subcutaneous-implanted BxPC-3 human pancreatic cancer xenografts in female athymic mice.
(§1) The human pancreatic cancer cell line, BxPC-3-T1 (no mutations on B-RAF and Ras genes) was transplanted subcutaneously into female nude mice. The experiment consisted of 8 mice per group on the first day of treatment. The compound was administered intravenously for two weekly rounds of five daily injections (q1d×5) with a two-day rest period between the rounds. The compound was administered in a vehicle volume of 0.1 mL/10 g of body weight.
(§2) The general health of the mice was monitored daily. Tumor dimensions and body weights were recorded twice a week starting on the first day of treatment. Tumor weights were calculated using the equation (l×w^2)/2, where 1 and w refer to the larger and smaller dimensions collected at each measurement. When the mean tumor volume reached 130 mm^3, vehicle (cremophor:ethanol:5% glucose; 1:1:8) or the test compound (15, 30 mg/kg) was administered to mice (8/group).

[3] = tested on: Colo205 human colon cancer xenografts; assay: In vivo antitumor activity in Colo205 xenografts; parameters: species or system mice; details: 30 mg/kg i.v., two weekly rounds of q1d×5
Experimental: A study was carried out to investigate anticancer activity of compounds 091 and 106 in human Colo205 BRAF mutated colon cancer xenografts. The compounds were evaluated against subcutaneous-implanted Colo205 human colon cancer xenografts in female athymic mice.
as §1, with “human colon” for “human pancreatic”, “line, Colo205 which has” for “line, BxPC-3-T1 (no mutations on”, “B-RAF (V600E) mutation” for “B-RAF and Ras genes)”, “of 6” for “of 8”, “rounds. Compound 091” for “rounds. The compound”
as §2, with “140” for “130”, “(30” for “(15, 30”, “(6/group).” for “(8/group).”

[4] = target: MEK1 (Homo sapiens, UniProt Q02750); assay: Biochemical MEK1 assay (ELISA, ERK2-coated plate)
Sequence of MEK1 (Q02750 whole entry): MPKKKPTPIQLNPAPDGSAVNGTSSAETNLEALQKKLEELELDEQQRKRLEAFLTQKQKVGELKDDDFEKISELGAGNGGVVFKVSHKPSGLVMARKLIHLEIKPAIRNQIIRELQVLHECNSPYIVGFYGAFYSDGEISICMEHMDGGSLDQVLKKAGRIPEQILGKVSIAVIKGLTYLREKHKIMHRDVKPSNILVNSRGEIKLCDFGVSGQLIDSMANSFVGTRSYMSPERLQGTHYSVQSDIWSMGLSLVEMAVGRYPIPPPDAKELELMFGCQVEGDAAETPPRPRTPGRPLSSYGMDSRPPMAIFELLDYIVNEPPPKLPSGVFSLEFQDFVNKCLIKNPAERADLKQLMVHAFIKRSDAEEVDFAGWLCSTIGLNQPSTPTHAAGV
Experimental: A biochemical MEK1 assay was carried out to investigate whether compounds of formula (I) or (II), e.g., compounds 029, 091, 106 and 114 are MEK1 inhibitors. Biochemical MEK1 inhibition of the compounds was assessed using an ELISA assay. All assays were performed in a 96 well format. A plate coated with ERK2, a substrate protein for MEK1 was used for biochemical MEK1 assay. In a final volume of 40 μL, MEK1 (25 ng) was incubated with 50 mmol/L HEPES, 20 mmol/L MgCl2, 4 mmol/L MnCl2, and 0.5 mmol/L Na3VO4 in the absence or presence of the test compounds. The reaction was initiated by the addition of 1 μmol/L ATP. After incubation for 40 minutes at 30° C., the reaction mixture was discarded and the plate was then washed 4 times with 0.05% Tween20/PBS. Each well was incubated with 100 μL of 1:4000 diluted phospho-ERK1/2 monoclonal antibody (Cell Signaling, MA) for 1.5 hours at room temperature. The antibody was then discarded and the plate was washed 6 times with 0.05% Tween20/PBS. Finally, 100 μL of 1:2000 diluted of HRP conjugated anti-mouse IgG antibody (Cell Signaling, MA) was added. After incubation for 90 minutes, this antibody was discarded and the plate was washed 8 times with 0.05% Tween20/PBS. Phosphorylated ERK2 was then visualized by peroxidase reaction, and read at 450 nm. FIG. 2A is a table depicting results from MEK1 assays.

[5] = Blood brain barrier penetration; details: in vivo

SMILES: CNc1cc(O)c2c(c1)/C=C/C[C@H](O)[C@H](O)C(=O)/C=C\[C@@H](C)[C@H](C)OC2=O [Compound 091]
- cell growth inhibition, concentration range of sensitivity [1]: low-nM or sub-μM
- tumor regression [2]: 50%
- tumor regression [3]: ~70%
- MEK1 inhibitory activity ([4]; 1 μmol/L ATP): low nM activity
- MEK1 inhibitory activity, dependence on ATP ([4]; at a low concentration of ATP): more potent
- brain/plasma AUC0-t ratio [5]: 3.170
